The target of this test is T1, calf spleen adenosine deaminase (Bos taurus, UniProt P56658).
T1 construct: The calf spleen adenosine deaminase (Specific Activity of 178 Units/mg protein) is purchased from Sigma Chemical Company; purchased Sigma Chemical Company, St Louis, Mo; host or cells: calf spleen (tissue-derived enzyme)
T1 sequence (P56658 1-363): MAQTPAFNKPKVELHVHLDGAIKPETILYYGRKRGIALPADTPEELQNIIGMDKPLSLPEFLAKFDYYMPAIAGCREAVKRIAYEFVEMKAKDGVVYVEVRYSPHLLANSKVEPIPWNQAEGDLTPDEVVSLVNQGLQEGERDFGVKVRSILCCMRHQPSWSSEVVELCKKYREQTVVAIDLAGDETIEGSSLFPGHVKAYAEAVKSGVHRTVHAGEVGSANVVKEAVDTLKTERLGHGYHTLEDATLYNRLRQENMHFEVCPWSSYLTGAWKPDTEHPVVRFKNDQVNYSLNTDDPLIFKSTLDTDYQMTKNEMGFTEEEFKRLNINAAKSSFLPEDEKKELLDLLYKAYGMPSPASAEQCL
The experiment in a line: Adenosine Deaminase (ADA) Assay, spectrophotometric at 265 nm. Conditions: Tris-HCl buffer 50 mM, pH 7.5, 25° C., adenosine substrate; dose-response (FIGS. 1 and 2); read-out: IC50, amount of the product per ml of the reaction mixture producing the enzyme inhibition by 50% (converted). It counts as biochemical. As for the experimental part:
The enzyme catalyzes the following reaction:
Adenosine+H2O→Inosine+NH3
The calf spleen adenosine deaminase (Specific Activity of 178 Units/mg protein) is purchased from Sigma Chemical Company, St Louis, Mo. The enzyme assay is carried out spectrophotometrically at 265 nm. The reaction mixture (in a 1-ml cuvette; diameter=1.0 cm) contains 0.9 ml of buffer (Tris-HCL buffer, 50 mM, pH 7.5), 25 μl of adenosine (2 mM), plus the enzyme, water and the extract to make 1 ml. The enzyme is added to start the reaction, and a decrease in absorbency at 265 nm is followed at 25° C. One unit of ADA activity is the amount of the enzyme that catalyzes 1 μmole of adenosine/min/ml of the reaction mixture.
The IC50 values have been determined by examining the dose-response effects of both products. The IC50 values represent the amount of the product per ml of the reaction mixture, producing the enzyme inhibition by 50%. In the enzyme assay, first a background reading is recorded on the chart for 1-2 min, followed by the addition of an appropriate amount of the enzyme to start the reaction, which is monitored spectrophotometrically.

The term IC50 denotes the midpoint of a concentration-inhibition curve. For `Oc1ccc(/C=C/c2cc(O)cc(O)c2)cc1` [resveratrol, 3,5,4′-trihydroxystilbene], the IC50 is 50.8 µM.
